Literature values as cited in patent US9676702B2, “Methods for synthesizing amatoxin building block and amatoxins” (Heidelberg Pharma GmbH, priority 2012, dated 2017).

Biological target: RNA-polymerase II (Homo sapiens, UniProt P24928+P30876)
Settings: non-covalent complex; background statement, no method given; read-out: KD of the complex between amanitin and RNA-polymerase II

Substance: amanitin
- Kd: 3 nM
